Counter-ions that a name gives are not always drawn.
Assays:
Format in all cases: cell-based
[1] = tested on: A. baumannii clinical isolate (strain 7); test: MIC by broth microdilution (alone and in combination with meropenam), strain 7; details: Acinetobacter baumannii, compound alone, read-out: MIC, antibacterial activity of example alone
Procedure: (§1) Compounds of the present invention alone, meropenam (MER) alone, and as a combination with test antibiotic (meropenam) were tested for antimicrobial activity by determing minimum inhibitory concentration (MIC, mg/L) using the broth microdilution method according to the guidelines of the Clinical Laboratories and Stansards Insitute (“Methods for Dilution Antimicrobial Suscetibility Tests for Bacterial that Grow Aerobiclly”, Approved standard, […]., Clinical and Laboratories Stanards Institute (CLSI) Document M7-A8, Wayne, Pa., USA, 2009). Meropenam as a test antibiotic compound was dissolved in DMSO. Meropenam was then diluted in microbial growth medium (Mueller-Hinton Broth II, cation adjusted) resulting in a final concention range of 0.125-64 mg/L in serial two-fold dilution. In all cases the filnal DMSO concentraion was less than 0.5%. Bacteria were added to 96-well microtitre plates containing the serial two-fold dilutions of the compoumds; the final cell density was appoximately 5x10^5 colony forming units/mL (CFU/mL). Plates were incubated at 37° C. for 18-24 hours and read visually. The MIC, i.e. the lowest concentration of the test compound that inhibited visible growth of the bacteria, was recorded. The same assay conditions were used when the compounds of present invention alone, and as a combination with test meropenam antibiotic compound was tested for minmum inhibitory concentration (MIC, mg/L). Whileest meropenam was serially diluted as descrribed above, a constant concentration of the present invention of 4 µg/mL was used.
(§2) Bacterial strains that were used to evaluate the antimicrobial activity using the MIC determination included but were not limited to E. coli clinical isolate (strain 1), E. coli 8739 (strain 2), K. pneumoniae clinical isolate (strain 3), K. pneumoniae 700603 (strain 4), E. cloacae clinical isolate (strain 5), E. cloacae 700323 (strain 6), A. baumannii clinical isolate (strain 7), A. baumannii 19606 (strain 8), P. aeruginosa clinical isolate (strain 9), P. aeruginosa 9027 (strain 10).

[2] = tested on: K. pneumoniae 700603 (strain 4); test: MIC by broth microdilution (alone and in combination with meropenam), strain 4; details: Klebsiella pneumoniae, compound alone, read-out: MIC, antibacterial activity of example alone
Procedure: as §1, §2

[3] = tested on: A. baumannii 19606 (strain 8); test: MIC by broth microdilution (alone and in combination with meropenam), strain 8; details: Acinetobacter baumannii, compound alone, read-out: MIC, antibacterial activity of example alone
Procedure: as §1, §2

[4] = tested on: P. aeruginosa 9027 (strain 10); test: MIC by broth microdilution (alone and in combination with meropenam), strain 10; details: Pseudomonas aeruginosa, compound alone, read-out: MIC, antibacterial activity of example alone
Procedure: as §1, §2

[5] = tested on: P. aeruginosa clinical isolate (strain 9); test: MIC by broth microdilution (alone and in combination with meropenam), strain 9; details: Pseudomonas aeruginosa, compound alone, read-out: MIC, antibacterial activity of example alone
Procedure: as §1, §2

E. coli 8739 (strain 2) = test: MIC by broth microdilution (alone and in combination with meropenam), strain 2; details: Escherichia coli, compound alone, read-out: MIC, antibacterial activity of example alone
Procedure: as §1, §2

[6] = tested on: E. cloacae clinical isolate (strain 5); test: MIC by broth microdilution (alone and in combination with meropenam), strain 5; details: Enterobacter cloacae, compound alone, read-out: MIC, antibacterial activity of example alone
Procedure: as §1, §2

[7] = tested on: K. pneumoniae clinical isolate (strain 3); test: MIC by broth microdilution (alone and in combination with meropenam), strain 3; details: Klebsiella pneumoniae, compound alone, read-out: MIC, antibacterial activity of example alone
Procedure: as §1, §2

[8] = tested on: E. coli clinical isolate (strain 1); test: MIC by broth microdilution (alone and in combination with meropenam), strain 1; details: Escherichia coli, compound alone, read-out: MIC, antibacterial activity of example alone
Procedure: as §1, §2

[9] = tested on: E. cloacae 700323 (strain 6); test: MIC by broth microdilution (alone and in combination with meropenam), strain 6; details: Enterobacter cloacae, compound alone, read-out: MIC, antibacterial activity of example alone
Procedure: as §1, §2

Measured: MIC

N=C(NC(=O)c1ccco1)[C@@H]1CC[C@@H]2CN1C(=O)N2OS(=O)(=O)O [Ex.1, (2S,5R)-2-(N-(furan-2-carbonyl)carbamimidoyl)-7-oxo-1,6-diazabicyclo[3.2.1]octan-6-yl Hydrogen Sulfate]
> 64 µg/mL: all assays above

N=C(NC(=O)c1ccccc1)[C@@H]1CC[C@@H]2CN1C(=O)N2OS(=O)(=O)O [Ex.2, (2S,5R)-2-(N-benzoylcarbamimidoyl)-7-oxo-1,6-diazabicyclo[3.2.1]octan-6-yl Hydrogen Sulfate]
> 64 µg/mL: all assays above

CCC(=O)NC(=N)[C@@H]1CC[C@@H]2CN1C(=O)N2OS(=O)(=O)[O-].[Na+] [Ex.3, Sodium (2S,5R)-7-oxo-2-(N-propionylcarbamimidoyl)-1,6-diazabicyclo[3.2.1]octan-6-yl Sulfate]
> 64 µg/mL: all assays above

CC(=O)N1CCC(C(=O)NC(=N)[C@@H]2CC[C@@H]3CN2C(=O)N3OS(=O)(=O)[O-])CC1.[Na+] [Ex.4, Sodium (2S,5R)-2-(N-(1-acetylpiperidine-4-carbonyl)carbamimidoyl)-7-oxo-1,6-diazabicyclo[3.2.1]octan-6-yl Sulfate]
> 64 µg/mL: all assays above

N=C(NC(=O)c1cccnc1)[C@@H]1CC[C@@H]2CN1C(=O)N2OS(=O)(=O)O [Ex.5, (2S,5R)-2-(N-nicotinoylcarbamimidoyl)-7-oxo-1,6-diazabicyclo[3.2.1]octan-6-yl Hydrogen Sulfate]
> 64 µg/mL: all assays above

N=C(NC(=O)c1ccc(C(F)(F)F)nc1)[C@@H]1CC[C@@H]2CN1C(=O)N2OS(=O)(=O)[O-].[Na+] [Ex.6, Sodium (2S,5R)-7-oxo-2-(N-(6-(trifluoromethyl)nicotinoyl)carbamimidoyl)-1,6-diazabicyclo[3.2.1]octan-6-yl Sulfate]
> 64 µg/mL: all assays above

N=C(NC(=O)c1ccncc1)[C@@H]1CC[C@@H]2CN1C(=O)N2OS(=O)(=O)O [Ex.7, (2S,5R)-2-(N-isonicotinoylcarbamimidoyl)-7-oxo-1,6-diazabicyclo[3.2.1]octan-6-yl Hydrogen Sulfate]
> 64 µg/mL: all assays above

CC(=O)NC(=N)[C@@H]1CC[C@@H]2CN1C(=O)N2OS(=O)(=O)O [Ex.9, (2S,5R)-2-(N-acetylcarbamimidoyl)-7-oxo-1,6-diazabicyclo[3.2.1]octan-6-yl Hydrogen Sulfate]
> 64 µg/mL: all assays above

N=C(NC(=O)c1cncnc1)[C@@H]1CC[C@@H]2CN1C(=O)N2OS(=O)(=O)O [Ex.10, Sodium (2S,5R)-7-oxo-2-(N-(pyrimidine-5-carbonyl)carbamimidoyl)-1,6-diazabicyclo[3.2.1]octan-6-yl Sulfate]
> 64 µg/mL: all assays above

N=C(NC(=O)CCN)[C@@H]1CC[C@@H]2CN1C(=O)N2OS(=O)(=O)[O-].[Na+] [Ex.11, Sodium (2S,5R)-2-(N-(3-aminopropanoyl)carbamimidoyl)-7-oxo-1,6-diazabicyclo[3.2.1]octan-6-yl Sulfate]
> 64 µg/mL: all assays above

N=C(NC(=O)c1cccnn1)[C@@H]1CC[C@@H]2CN1C(=O)N2OS(=O)(=O)O [Ex.12, (2S,5R)-7-oxo-2-(N-(pyridazine-3-carbonyl)carbamimidoyl)-1,6-diazabicyclo[3.2.1]octan-6-yl Hydrogen Sulfate]
> 64 µg/mL: all assays above

Reference: patent US20230365561A1, “BETA-LACTAMASE INHIBITORS AND THEIR PREPARATION” (NINGXIA ACADEMY OF AGRICUL TURE AND FORESTRY SCIENCES, priority 2020, published 2023)
